Reference: ChEMBL document CHEMBL1143507, “Molecular-modeling based design, synthesis, and activity of substituted piperidines as gamma-secretase inhibitors” (Bioorg Med Chem Lett, 2005)

What was measured:
[1] = target: T1, Amyloid-beta precursor protein (Homo sapiens, UniProt P05067); test: In vitro effective concentration against beta amyloid protein 42 in ELISA; increase in presence of weak inhibitor
Target sequence in this assay (P05067 whole entry): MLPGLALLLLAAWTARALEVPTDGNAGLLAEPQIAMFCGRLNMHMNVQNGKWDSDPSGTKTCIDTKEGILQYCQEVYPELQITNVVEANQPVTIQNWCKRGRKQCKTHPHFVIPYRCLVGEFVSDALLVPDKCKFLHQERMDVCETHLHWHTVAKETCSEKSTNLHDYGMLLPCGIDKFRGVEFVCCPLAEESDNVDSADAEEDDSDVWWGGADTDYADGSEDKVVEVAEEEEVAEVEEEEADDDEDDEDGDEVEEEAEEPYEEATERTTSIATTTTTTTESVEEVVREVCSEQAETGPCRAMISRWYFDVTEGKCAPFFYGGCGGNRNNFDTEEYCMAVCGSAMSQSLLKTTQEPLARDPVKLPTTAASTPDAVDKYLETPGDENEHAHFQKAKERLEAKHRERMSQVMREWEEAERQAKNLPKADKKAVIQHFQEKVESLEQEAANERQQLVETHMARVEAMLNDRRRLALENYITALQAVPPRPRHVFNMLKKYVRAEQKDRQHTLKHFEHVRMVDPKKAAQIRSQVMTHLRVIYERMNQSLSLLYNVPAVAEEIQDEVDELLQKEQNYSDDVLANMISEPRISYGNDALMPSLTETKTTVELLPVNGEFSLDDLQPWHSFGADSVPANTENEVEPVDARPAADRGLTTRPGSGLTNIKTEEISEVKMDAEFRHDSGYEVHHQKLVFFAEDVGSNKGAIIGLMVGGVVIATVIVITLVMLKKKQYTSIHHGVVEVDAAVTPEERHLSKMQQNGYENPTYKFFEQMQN

[2] = target: T1, Amyloid-beta precursor protein; test: Percent inhibition of beta amyloid protein 40 activity in ELISA at 100 uM
Target sequence in this assay (P05067 whole entry): as above

[3] = target: T1, Amyloid-beta precursor protein; test: In vitro elevation of beta C-terminal fragment (Ct-99) in CHO cells expressing mutant Swedish NL human APP; assay type: functional, cell-based
Target sequence in this assay (P05067 18-770 limits assumed): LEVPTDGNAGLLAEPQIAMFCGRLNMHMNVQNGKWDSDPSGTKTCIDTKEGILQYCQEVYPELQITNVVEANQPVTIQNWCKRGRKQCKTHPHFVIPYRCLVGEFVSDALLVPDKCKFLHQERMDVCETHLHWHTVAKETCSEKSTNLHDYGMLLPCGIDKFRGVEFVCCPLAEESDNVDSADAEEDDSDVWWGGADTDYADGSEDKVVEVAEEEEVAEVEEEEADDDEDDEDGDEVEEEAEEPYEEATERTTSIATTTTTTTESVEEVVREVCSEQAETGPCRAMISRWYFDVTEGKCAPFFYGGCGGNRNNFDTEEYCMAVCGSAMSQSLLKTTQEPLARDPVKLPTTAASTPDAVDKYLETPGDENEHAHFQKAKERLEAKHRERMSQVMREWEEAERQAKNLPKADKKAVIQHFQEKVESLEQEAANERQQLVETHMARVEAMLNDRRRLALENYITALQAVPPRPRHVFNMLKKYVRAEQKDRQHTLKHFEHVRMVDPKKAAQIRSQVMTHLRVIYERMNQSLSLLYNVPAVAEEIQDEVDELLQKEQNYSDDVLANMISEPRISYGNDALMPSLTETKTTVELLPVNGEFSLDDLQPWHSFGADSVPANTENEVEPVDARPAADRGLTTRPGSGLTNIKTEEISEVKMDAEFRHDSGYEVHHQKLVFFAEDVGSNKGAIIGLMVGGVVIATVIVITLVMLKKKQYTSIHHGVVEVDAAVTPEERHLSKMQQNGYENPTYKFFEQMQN

[4] = target: T1, Amyloid-beta precursor protein; test: In vitro reduction of Swedish NL mutant amyloid precursor protein activity expressed in CHO cells; assay type: functional, cell-based
Target sequence in this assay (P05067 18-770 limits assumed): as above

Structure (SMILES)	EC50 [1]	further results
CCOC(=O)N1CCC(c2ccccc2)(S(=O)(=O)c2ccc(OC)cc2)CC1	Increase	
CCOC(=O)N1CCC(c2ccccc2OC)(S(=O)(=O)c2ccccc2)CC1	Increase	
CCOC(=O)N1CCC(c2ccccc2)(S(=O)(=O)c2ccccc2)CC1	Increase	inhibition [2]: 84%
CCOC(=O)N1CCC(c2ccccc2OC)(S(=O)(=O)c2ccc(Cl)cc2)CC1		EC50 [3]: 640 nM; EC50 [4]: 530 nM
CCOC(=O)N1CCC(c2ccccc2C)(S(=O)(=O)c2ccc(OC)cc2)CC1	Increase	
CCOC(=O)N1CCC(c2ccccc2OC)(S(=O)(=O)c2ccc(OC)cc2)CC1	Increase	
CCOC(=O)N1CCC(c2ccccc2C)(S(=O)(=O)c2ccccc2)CC1	Increase	
